Results published in PubChem BioAssay (NCI).
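Assay format: 96-well plates, 48-hour exposure. At the GI50, growth is halved. TGI denotes the concentration required for complete inhibition of growth.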

Key:
Assay in all cases: NCI-60 cell line screen, 48 h
SK-MEL-5 melanoma = system: SK-MEL-5 melanoma
UACC-257 melanoma = system: UACC-257 melanoma
OVCAR-4 ovarian = system: OVCAR-4 ovarian
786-0 renal = system: 786-0 renal
SK-MEL-28 melanoma = system: SK-MEL-28 melanoma
SN12C renal = system: SN12C renal
UO-31 renal = system: UO-31 renal
SF-268 CNS = system: SF-268 CNS
TK-10 renal = system: TK-10 renal
NCI-H460 lung = system: NCI-H460 lung
MCF7 breast = system: MCF7 breast
PC-3 prostate = system: PC-3 prostate
T-47D breast = system: T-47D breast
MDA-MB-231 breast = system: MDA-MB-231 breast
MALME-3M melanoma = system: MALME-3M melanoma
NCI-H226 lung = system: NCI-H226 lung
BT-549 breast = system: BT-549 breast
HS 578T breast = system: HS 578T breast
SF-539 CNS = system: SF-539 CNS
M14 melanoma = system: M14 melanoma
A498 renal = system: A498 renal
HCC-2998 colon = system: HCC-2998 colon
UACC-62 melanoma = system: UACC-62 melanoma
COLO 205 colon = system: COLO 205 colon
RXF 393 renal = system: RXF 393 renal
HOP-62 NSCLC = system: HOP-62 NSCLC
SW-620 colon = system: SW-620 colon
A549 NSCLC = system: A549 NSCLC
SK-MEL-2 melanoma = system: SK-MEL-2 melanoma
HOP-92 NSCLC = system: HOP-92 NSCLC
SR leukemia = system: SR leukemia
SNB-19 CNS = system: SNB-19 CNS
CCRF-CEM leukemia = system: CCRF-CEM leukemia
K-562 leukemia = system: K-562 leukemia
U251 CNS = system: U251 CNS
NCI-H23 lung = system: NCI-H23 lung
RPMI-8226 leukemia = system: RPMI-8226 leukemia
CAKI-1 renal = system: CAKI-1 renal
SNB-75 CNS = system: SNB-75 CNS
LOX IMVI melanoma = system: LOX IMVI melanoma
HCT-116 colon = system: HCT-116 colon
DU-145 prostate = system: DU-145 prostate
KM12 colon = system: KM12 colon
EKVX NSCLC = system: EKVX NSCLC
HT29 colon = system: HT29 colon
OVCAR-3 ovarian = system: OVCAR-3 ovarian
HCT-15 colon = system: HCT-15 colon
OVCAR-8 ovarian = system: OVCAR-8 ovarian
MDA-MB-435 = system: MDA-MB-435
SF-295 CNS = system: SF-295 CNS
SK-OV-3 ovarian = system: SK-OV-3 ovarian
NCI/ADR-RES ovarian = system: NCI/ADR-RES ovarian
IGROV1 ovarian = system: IGROV1 ovarian
MOLT-4 leukemia = system: MOLT-4 leukemia
OVCAR-5 ovarian = system: OVCAR-5 ovarian
NCI-H522 lung = system: NCI-H522 lung
ACHN renal = system: ACHN renal
HL-60(TB) leukemia = system: HL-60(TB) leukemia

O=C(/C=C/c1cc(Cl)ccc1Cl)Nc1ncc(Cc2ccc(Cl)cc2)s1
GI50 (SK-MEL-5 melanoma): 299 nM | TGI (SK-MEL-5 melanoma): 5190 nM | GI50 (UACC-257 melanoma): 226 nM | TGI (UACC-257 melanoma): > 46900 nM | GI50 (OVCAR-4 ovarian): 1590 nM | TGI (OVCAR-4 ovarian): 10800 nM | GI50 (786-0 renal): 112 nM | TGI (786-0 renal): 3240 nM | GI50 (SK-MEL-28 melanoma): 1980 nM | TGI (SK-MEL-28 melanoma): 53400 nM | GI50 (SN12C renal): 150 nM | TGI (SN12C renal): 11700 nM | GI50 (UO-31 renal): 142 nM | TGI (UO-31 renal): 7360 nM | GI50 (SF-268 CNS): 1170 nM | TGI (SF-268 CNS): 52900 nM | GI50 (TK-10 renal): 1300 nM | TGI (TK-10 renal): 11100 nM | GI50 (NCI-H460 lung): 64 nM | TGI (NCI-H460 lung): 1510 nM | GI50 (MCF7 breast): 83.3 nM | TGI (MCF7 breast): > 38800 nM | GI50 (PC-3 prostate): 105 nM | TGI (PC-3 prostate): > 53700 nM | GI50 (T-47D breast): 14100 nM | TGI (T-47D breast): > 100000 nM | GI50 (MDA-MB-231 breast): 179 nM | TGI (MDA-MB-231 breast): 9530 nM | GI50 (MALME-3M melanoma): 866 nM | TGI (MALME-3M melanoma): 43300 nM | GI50 (NCI-H226 lung): 310 nM | TGI (NCI-H226 lung): 12000 nM | GI50 (BT-549 breast): 57.4 nM | TGI (BT-549 breast): 379 nM | GI50 (HS 578T breast): 52.4 nM | TGI (HS 578T breast): 6180 nM | GI50 (SF-539 CNS): 32.8 nM | TGI (SF-539 CNS): 202 nM | GI50 (M14 melanoma): 40.5 nM | TGI (M14 melanoma): 1490 nM | GI50 (A498 renal): 31.6 nM | TGI (A498 renal): 235 nM | GI50 (HCC-2998 colon): 209 nM | TGI (HCC-2998 colon): 10700 nM | GI50 (UACC-62 melanoma): 50.7 nM | TGI (UACC-62 melanoma): 18000 nM | GI50 (COLO 205 colon): 82.3 nM | TGI (COLO 205 colon): 378 nM | GI50 (RXF 393 renal): 27.6 nM | TGI (RXF 393 renal): 306 nM | GI50 (HOP-62 NSCLC): 80.3 nM | TGI (HOP-62 NSCLC): 6030 nM | GI50 (SW-620 colon): 45.4 nM | TGI (SW-620 colon): > 100000 nM | GI50 (A549 NSCLC): 99.2 nM | TGI (A549 NSCLC): 13000 nM | GI50 (SK-MEL-2 melanoma): 144 nM | TGI (SK-MEL-2 melanoma): 4520 nM | GI50 (HOP-92 NSCLC): 715 nM | TGI (HOP-92 NSCLC): 5870 nM | GI50 (SR leukemia): 32.4 nM | TGI (SR leukemia): > 100000 nM | GI50 (SNB-19 CNS): 70.2 nM | TGI (SNB-19 CNS): 31400 nM | GI50 (CCRF-CEM leukemia): 37.6 nM | TGI (CCRF-CEM leukemia): > 100000 nM | GI50 (K-562 leukemia): 35.2 nM | TGI (K-562 leukemia): > 100000 nM | GI50 (U251 CNS): 39.5 nM | TGI (U251 CNS): 3880 nM | GI50 (NCI-H23 lung): 67.3 nM | TGI (NCI-H23 lung): 11000 nM | GI50 (RPMI-8226 leukemia): 67.4 nM | TGI (RPMI-8226 leukemia): 16500 nM | GI50 (CAKI-1 renal): 61.8 nM | TGI (CAKI-1 renal): 2170 nM | GI50 (SNB-75 CNS): 39.1 nM | TGI (SNB-75 CNS): 2470 nM | GI50 (LOX IMVI melanoma): 101 nM | TGI (LOX IMVI melanoma): 11300 nM | GI50 (HCT-116 colon): 42 nM | TGI (HCT-116 colon): 5850 nM | GI50 (DU-145 prostate): 300 nM | TGI (DU-145 prostate): 15900 nM | GI50 (KM12 colon): 53.5 nM | TGI (KM12 colon): > 28100 nM | GI50 (EKVX NSCLC): 158 nM | TGI (EKVX NSCLC): > 72900 nM | GI50 (HT29 colon): 86.8 nM | TGI (HT29 colon): 1210 nM | GI50 (OVCAR-3 ovarian): 113 nM | TGI (OVCAR-3 ovarian): 1280 nM | GI50 (HCT-15 colon): 44.8 nM | TGI (HCT-15 colon): > 37900 nM | GI50 (OVCAR-8 ovarian): 69.5 nM | TGI (OVCAR-8 ovarian): 1840 nM | GI50 (MDA-MB-435): 19.2 nM | TGI (MDA-MB-435): 41.4 nM | GI50 (SF-295 CNS): 38.2 nM | TGI (SF-295 CNS): 5130 nM | GI50 (SK-OV-3 ovarian): 78.7 nM | TGI (SK-OV-3 ovarian): 17000 nM | GI50 (NCI/ADR-RES ovarian): 42.9 nM | TGI (NCI/ADR-RES ovarian): 2280 nM | GI50 (IGROV1 ovarian): 165 nM | TGI (IGROV1 ovarian): 16300 nM | GI50 (MOLT-4 leukemia): 122 nM | TGI (MOLT-4 leukemia): > 100000 nM | GI50 (OVCAR-5 ovarian): 197 nM | TGI (OVCAR-5 ovarian): 13800 nM | GI50 (NCI-H522 lung): 33.3 nM | TGI (NCI-H522 lung): 155 nM | GI50 (ACHN renal): 128 nM | TGI (ACHN renal): 5290 nM | GI50 (HL-60(TB) leukemia): 28.2 nM | TGI (HL-60(TB) leukemia): 256 nM
